According to patent US9725459B2, “3-oxo-tetrahydro-furo[3,2-B]pyrrol-4(5H)-yl) derivatives I” (GRÜNENTHAL GMBH, priority 2014, dated 2017):

Columns and labels:
Format in all cases: biochemical
human cathepsin K (CatK) = human cathepsin K (CatK) (Homo sapiens (Human), UniProt P43235); assay: CatK functional enzyme assay; details: recombinant human CatK, substrate Z-FR-AMC 40 μM, pH 5.5; Ki by Cheng Prusoff equation; read-out: hCatK, Ki
Method: (§1) Reference and test compounds were assayed for inhibitory potency (IC50) against human cathepsins using the following assay setups:
(§2) Recombinant human cathepsins (CatS, CatK, CatL) were purchased from a Enzo Life Sciences. All assays were carried out in 96-well format using a buffer of 50 mM KH2PO4, 50 mM NaCl, 2 mM EDTA, 0.5 mM DTT and 1% Triton-X-100, pH 6.5 for Cathepsin S and a buffer of 50 mM NaOAc, 10 mM EDTA, 1 mM DTT and 0.01% Triton-X-100, pH 5.5 for CatK/L/B. For CatS, the enzyme (0.0007 mU/well) was incubated with fluorogeninc substrate (Z-VVR-AMC, 5 μM) at RT for 10 min. For CatK the enzyme (0.00175 mU/well) was incubated with fluorogeninc substrate (Z-FR-AMC, 40 μM) at RT for 10 min. For CatL, the enzyme (0.000874 mU/well) was incubated with fluorogeninc substrate (Z-VVR-AMC, 40 μM) at RT for 10 min. Flourogenic substrate turnover was detected using a microplate reader (Synergy™ H4, BioTek). Ki values were calculated using the Cheng Prusoff equation (Cheng & Prosoff 1973).

human cathepsin S (CatS) = human cathepsin S (CatS) (Homo sapiens (Human), UniProt P25774); assay: CatS functional enzyme assay; details: for Selectivity Ki(hCatS)/Ki(hCatK): ratio Ki(hCatS)/Ki(hCatK); for Ki: recombinant human CatS, substrate Z-VVR-AMC 5 μM, pH 6.5, Ki by Cheng Prusoff equation, read-out: hCatS, Ki
human cathepsin S (CatS), sequence (P25774 115-331): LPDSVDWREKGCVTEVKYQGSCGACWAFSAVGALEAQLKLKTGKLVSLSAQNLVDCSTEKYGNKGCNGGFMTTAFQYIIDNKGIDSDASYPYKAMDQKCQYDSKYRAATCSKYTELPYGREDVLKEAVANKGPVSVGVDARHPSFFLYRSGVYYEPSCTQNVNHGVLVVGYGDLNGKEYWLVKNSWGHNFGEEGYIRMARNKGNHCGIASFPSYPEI
Method: as §2, with “Reference and test compounds were assayed for inhibitory potency (IC50) against human cathepsins using the following assay setups: Recombinant” for “Recombinant”, “All assays were carried out in 96-well format using a buffer of 50 mM KH2PO4, 50 mM NaCl, 2 mM EDTA, 0.5 mM DTT and 1% Triton-X-100, pH 6.5 for Cathepsin S and a buffer of 50 mM NaOAc, 10 mM EDTA, 1 mM DTT and 0.01% Triton-X-100, pH 5.5 for CatK/L/B.” left out

human cathepsin L (CatL) = human cathepsin L (CatL) (Homo sapiens (Human), UniProt P07711); assay: CatL functional enzyme assay; details: read-out: hCatL, inhibition [%] at 31.6 μM
human cathepsin L (CatL), sequence (P07711 114-333): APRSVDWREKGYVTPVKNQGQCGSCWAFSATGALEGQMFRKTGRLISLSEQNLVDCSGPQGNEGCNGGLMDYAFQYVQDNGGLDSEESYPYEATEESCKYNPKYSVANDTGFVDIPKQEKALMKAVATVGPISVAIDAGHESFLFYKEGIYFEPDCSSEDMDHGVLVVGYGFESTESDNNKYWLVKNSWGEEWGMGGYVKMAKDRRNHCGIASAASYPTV
Method: as §1, §2

human cathepsin K (CatK), sequence (P43235 115-329): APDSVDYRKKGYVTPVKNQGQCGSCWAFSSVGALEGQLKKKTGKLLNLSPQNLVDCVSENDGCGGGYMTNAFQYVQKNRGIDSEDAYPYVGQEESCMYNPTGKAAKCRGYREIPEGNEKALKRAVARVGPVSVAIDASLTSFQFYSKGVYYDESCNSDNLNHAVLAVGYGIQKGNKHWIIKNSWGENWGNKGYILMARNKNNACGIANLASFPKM

Row | SMILES | Ki (human cathepsin K (CatK)) | Selectivity Ki(hCatS)/Ki(hCatK) (human cathepsin S (CatS)) | Ki (human cathepsin S (CatS)) | inhibition at 31.6 µM (human cathepsin L (CatL))
1 | O=C(N[C@H](C(=O)N1C[C@H](Cl)[C@H]2OCC(=O)[C@H]21)C1CCCCC1)c1ccc(-c2cccnn2)o1 [Example 20, N-((S)-2-((3aS,6S,6aS)-6-chloro-3-oxotetrahydro-2H-furo[3,2-b]pyrrol-4(5H)-yl)-1-cyclohexyl-2-oxoethyl)-5-(pyridazin-3-yl)furan-2-carboxamide] | 225 nM | 3.2 | 727 nM | 16%
2 | Cc1nnccc1-c1ccc(C(=O)N[C@H](C(=O)N2C[C@H](Cl)[C@H]3OCC(=O)[C@H]32)C2CCCCC2)s1 [Example 58, N-((S)-2-((3aS,6S,6aS)-6-chloro-3-oxotetrahydro-2H-furo[3,2-b]pyrrol-4(5H)-yl)-1-cyclohexyl-2-oxoethyl)-5-(3-methylpyridazin-4-yl)thiophene-2-carboxamide] | 34 nM | 1.5 | 51 nM | 21%
3 | O=C(N[C@H](C(=O)N1C[C@H](Cl)[C@H]2OCC(=O)[C@H]21)C1CCCCC1)c1ncc(-c2ccncc2F)s1 [Example 50, N-((S)-2-((3aS,6S,6aS)-6-chloro-3-oxotetrahydro-2H-furo[3,2-b]pyrrol-4(5H)-yl)-1-cyclohexyl-2-oxoethyl)-5-(3-fluoropyridin-4-yl)thiazole-2-carboxamide] | 11 nM | 66.6 | 733 nM | 15%
4 | O=C(N[C@H](C(=O)N1C[C@H](Cl)[C@H]2OCC(=O)[C@H]21)C1CCCCC1)c1ncc(-c2ccncc2)s1 [Example 49, N-((S)-2-((3aS,6S,6aS)-6-chloro-3-oxotetrahydro-2H-furo[3,2-b]pyrrol-4(5H)-yl)-1-cyclohexyl-2-oxoethyl)-5-(pyridin-4-yl)thiazole-2-carboxamide] | 9 nM | 41.8 | 376 nM | 4%
5 | Cc1cnncc1-c1ccc(C(=O)N[C@H](C(=O)N2C[C@H](Cl)[C@H]3OCC(=O)[C@H]32)C2CCCCC2)s1 [Example 90, N-((S)-2-((3aS,6S,6aS)-6-chloro-3-oxotetrahydro-2H-furo[3,2-b]pyrrol-4(5H)-yl)-1-cyclohexyl-2-oxoethyl)-5-(5-methylpyridazin-4-yl)thiophene-2-carboxamide] | 10 nM | 7.3 | 73 nM | 20%
6 | Cc1nccc(-c2cnc(C(=O)N[C@H](C(=O)N3C[C@H](Cl)[C@H]4OCC(=O)[C@H]43)C3CCCCC3)s2)n1 [Example 32, N-((S)-2-((3aS,6S,6aS)-6-chloro-3-oxotetrahydro-2H-furo[3,2-b]pyrrol-4(5H)-yl)-1-cyclohexyl-2-oxoethyl)-5-(2-methylpyrimidin-4-yl)thiazole-2-carboxamide] | 20 nM | 15.9 | 317 nM | 22%
7 | COc1cc(-c2ccc(C(=O)N[C@H](C(=O)N3C[C@H](Cl)[C@H]4OCC(=O)[C@H]43)C3CCCCC3)s2)ccn1 [Example 56, N-((S)-2-((3aS,6S,6aS)-6-chloro-3-oxotetrahydro-2H-furo[3,2-b]pyrrol-4(5H)-yl)-1-cyclohexyl-2-oxoethyl)-5-(2-methoxypyridin-4-yl)thiophene-2-carboxamide] | 6 nM | 16.6 | 92 nM | 20%
8 | O=C(N[C@H](C(=O)N1C[C@H](Cl)[C@H]2OCC(=O)[C@H]21)C1CCCCC1)c1cc(F)c(-c2ccnnc2)s1 [Example 40, N-((S)-2-((3aS,6S,6aS)-6-chloro-3-oxotetrahydro-2H-furo[3,2-b]pyrrol-4(5H)-yl)-1-cyclohexyl-2-oxoethyl)-4-fluoro-5-(pyridazin-4-yl)thiophene-2-carboxamide] | 12 nM | 37.8 | 453 nM | 39%
